One data set in a line: Solubility (in words). The format is physicochemical.
The nature of data set [1]: Safe use evaluation in vivo (MTD, symptoms, blood biochemistry, histopathology). The conditions noted are these: both sexes, mouse, in vivo, ip; BALB/c mice, i.p., two males and two females per group; read-out: MTD (maximum tolerated dose). The gist of the method: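 Male and female mice (two each per group) dosed i.p. with compounds in saline at escalating doses; toxicity signs observed closely for 2 h, then over 48 h to set MTD. At 48 h, plasma glucose, urea, creatinine, ALT, AST, ALP, amylase measured; intestine, liver, kidney examined by H&E histopathology.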

The nature of data set [2]: WST-1 cytotoxicity test, Jurkat. The format is cell-based. The conditions noted are these: human, Jurkat cells, 48 h, WST-1, mean ± SD of three experiments, read-out: relative viability (%) compared to untreated control. How it is done: (§1) In this study, the cytotoxic effects of nine new compounds (2, 3, 4, 5, 6, 7, 8, 9, 10) were tested on 10 human cell lines (nine cancer and one non-cancer cell line). The cell lines were treated with each compound at concentrations of 10 µM and 100 µM for 48 h. The proliferation capacity of the treated cells was determined by WST-1 test and compared against the proliferation rate of the untreated control cells (100%).
(§2) The cell lines Jurkat, MOLT-4, A2780, A549, HT-29, PANC-1, HeLa, MCF-7, SAOS-2, and MRC-5 (all purchased from Sigma Aldrich, Czech Republic) were included in this study. All cell lines were maintained according to the provider’s guidelines, and plated and treated in 96-well plates (500 to 30 × 10^3 cells per well). The tested compounds 2, 3, 4, 5, 6, 7, 8, 9, and 10 were dissolved in 0.1% DMSO and kept in 10 mM stock solutions. Before use, the stock solution was diluted in culture media at ratios of 1:100 and 1:1000. The studied cell lines were treated with the compounds 2, 3, 4, 5, 6, 7, 8, 9, and 10 at concentrations of 10 and 100 µM for 48 h. Control cells were tested in culture media with and without DMSO (0.1%). The cells were also treated with 1 µM doxorubicin as a cytotoxicity control.
(§3) The WST-1 (2-(4-iodophenyl)-3-(4-nitrophenyl)-5-(2,4-disulfophenyl)-2H-tetrazolium, monosodium salt) test (Roche, Mannheim, Germany) was used according to the manufacturer’s protocol to determine cell viability in all 10 cell lines 48 h after treatment with the tested compounds. The cells were analyzed in a Tecan Infinite M200 spectrometer (Tecan Group, Männedorf, Switzerland) at 440 nm.
(In general: Formazan colour is commonly taken as a measure of viable cells.)

Data set [3] is described as follows: WST-1 cytotoxicity test, SAOS-2. In kind it is cell-based. Particulars: human, SAOS-2 cells, 48 h, WST-1, mean ± SD of three experiments, read-out: relative viability (%) compared to untreated control; for viability at 48 h, 10 µM: SAOS-2, 10 µM; for viability at 48 h, 100 µM: SAOS-2, 100 µM. The protocol: as §1, §2, §3

From publication PMC7038073, “Substituted Piperazines as Novel Potential Radioprotective Agents” (Molecules, 2020) come the findings set out here.

Usually MTD stands for the highest dose tested that stayed within the study's limit of toxicity. The term viability denotes a read-out of living cells in per cent, often relative to untreated cells.

Structures are written as SMILES. Entries after “also recorded” stand apart in the source; their conditions may differ. Structures can show the parent of a compound that is named as a salt.

`OCCN1CCN(CC(O)CN2CCN(CCO)CC2)CC1` [Compound 8, 1.3-bis [4-(2-hydroxyethyl)piperazin-1-yl)propan-2-ol tetrahydrochloride]: in the data set “Solubility (in words)”, the “solubility (in words)” value is “excellently soluble in media”. Further, the maximal tolerated dose (MTD) at 48 h in data set [1] amounted to 2000 mg/kg. Also, in data set [2], the viability at 48 h, 10 µM was found to be 103 ± 5% and the viability at 48 h, 100 µM is 96 ± 13%. Besides, in data set [3], the viability at 48 h, 10 µM was determined as 102 ± 6% and the viability at 48 h, 100 µM is 87 ± 7%.

Take `Cc1cc(OCC(O)CN2CCN(CCO)CC2)ccc1Cl.Cl.Cl` (stereo not drawn) [Compound 4, 1-(4-chloro-3-methylphenoxy)-3-(4-(2-hydroxyethyl)piperazin-1-yl)propan-2-ol dihydrochloride]: the maximum tolerated dose (MTD) at 48 h in data set [1] was 100 mg/kg. In addition, the figures for the viability at 48 h, 10 µM in data set [2] and in data set [3] were 105 ± 5% and 99 ± 6%, respectively. Also, the viability at 48 h, 100 µM was 89 ± 1% in data set [2] and 88 ± 4% in data set [3].

Take `COc1ccc(NCCCN2CCN(CCO)CC2)cc1.Cl.Cl.Cl` [Compound 7, 2-(4-(3-((4-methoxyphenyl)amino)propyl)piperazin-1-yl)ethanol trihydrochloride]: in data set [1], the maximal tolerated dose (MTD) at 48 h is 200 mg/kg. Also, the results for the viability at 48 h, 10 µM in data set [2] and in data set [3] were 100 ± 5% and 102 ± 7%, respectively. Also, the viability at 48 h, 100 µM is 96% in data set [2] and 109 ± 2% in data set [3].

Consider `Cl.Cl.OC(CNc1ccccc1)CNc1ccccc1` [Compound 9, 1,3-bis(phenylamino)propan-2-ol dihydrochloride], for which the “solubility (in words)” value in the data set “Solubility (in words)” is given as “low solubility; also recorded: insufficiently soluble for necessary concentrations”. The figures for the viability at 48 h, 10 µM in data set [2] and in data set [3] were 104 ± 5% and 106 ± 2%, respectively. The viability at 48 h, 100 µM was found to be 79 ± 11% in data set [2] and 90 ± 4% in data set [3].

`Cl.Cl.Cl.OCCN1CCN(CC(O)CNc2ccccc2)CC1` (stereo not drawn) [Compound 10, 1-(phenylamino]-3-[4-(2-hydroxyethyl)piperazin-1-yl)propan-2-ol trihydrochloride]: in data set [1], the maximal tolerated dose (MTD) at 48 h is 650 mg/kg. In data set [2], the viability at 48 h, 10 µM came out at 108 ± 7% and the viability at 48 h, 100 µM amounted to 95 ± 4%. In addition, in data set [3], the viability at 48 h, 10 µM is 97 ± 6% and the viability at 48 h, 100 µM turned out to be 102 ± 2%.

`Cl.Cl.Cl.OCCN1CCN(CCCNc2cccc3ccccc23)CC1` [Compound 6, 2-(4-(3-(naphthalen-1-ylamino)propyl)piperazin-1-yl)ethanol trihydrochloride]: the maximal tolerated dose (MTD) at 48 h in data set [1] came out at 100 mg/kg. Further, in data set [2], the viability at 48 h, 10 µM came to 101 ± 1% and the viability at 48 h, 100 µM was 93 ± 2%. Moreover, in data set [3], the viability at 48 h, 10 µM came to 94 ± 6% and the viability at 48 h, 100 µM was 111 ± 4%.

For the compound `Cl.Cl.Cl.OCCN1CCN(CCCNc2ccccc2)CC1` [Compound 5, 2-(4-(3-(phenylamino)propyl)piperazin-1-yl)ethanol trihydrochloride], the maximal tolerated dose (MTD) at 48 h in data set [1] was 200 mg/kg. Besides, the figures for the viability at 48 h, 10 µM in data set [2] and in data set [3] were 98 ± 4% and 96 ± 4%, respectively. Also, the figures for the viability at 48 h, 100 µM in data set [2] and in data set [3] were 98 ± 3% and 111 ± 6%, respectively.
